Results reported in article PMC3723327 (Journal of biomolecular screening, 2012).

Tests used:
MEKK2 [1] = target: T1, MEKK2 (Homo sapiens, UniProt Q9Y2U5); experiment: MEKK2 TR-FRET binding assay; conditions: 5 nM MEKK2, 25 nM kinase tracer 236
T1 sequence (Q9Y2U5 1-619): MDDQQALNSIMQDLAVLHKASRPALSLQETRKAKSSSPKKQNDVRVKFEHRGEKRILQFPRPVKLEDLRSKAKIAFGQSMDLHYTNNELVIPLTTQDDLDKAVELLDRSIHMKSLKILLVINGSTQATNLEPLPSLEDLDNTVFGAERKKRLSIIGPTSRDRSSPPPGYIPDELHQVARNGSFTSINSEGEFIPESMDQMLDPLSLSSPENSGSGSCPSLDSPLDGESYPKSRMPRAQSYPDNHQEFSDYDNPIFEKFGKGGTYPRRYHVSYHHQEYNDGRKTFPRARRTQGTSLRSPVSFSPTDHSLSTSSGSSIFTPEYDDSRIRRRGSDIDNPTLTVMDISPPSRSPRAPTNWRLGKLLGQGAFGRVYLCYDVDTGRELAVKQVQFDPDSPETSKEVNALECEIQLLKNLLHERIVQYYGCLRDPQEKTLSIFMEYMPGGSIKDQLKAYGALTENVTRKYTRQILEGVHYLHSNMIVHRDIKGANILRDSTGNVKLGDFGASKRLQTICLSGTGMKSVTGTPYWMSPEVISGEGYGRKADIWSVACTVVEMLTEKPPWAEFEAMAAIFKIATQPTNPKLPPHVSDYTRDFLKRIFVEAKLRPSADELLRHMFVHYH

MEKK2 [2] = target: T1, MEKK2; experiment: MEKK2 intrinsic ATPase activity assay; assay type: biochemical; conditions: for inhibition at 1 µM: read-out: Inhibition in MEKK2 intrinsic ATPase assay screen (hit criterion)
MEKK2 [3] = target: T1, MEKK2; experiment: MEKK2 transphosphorylation activity assay; assay type: biochemical; conditions: 2 nM MEKK2, 200 nM MKK6, 3 μM ATP
MEKK2 [4] = conditions: read-out: Published MEKK2 Binding Assay IC50; TR-FRET binding assay; ref Invitrogen Lanthascreen Eu Kinase Binding Assay for MEKK2 Validation Packet; cited from earlier work
MEKK2 [5] = experiment: MEKK2 intrinsic ATPase activity assay; assay type: biochemical, human; conditions: high compound concentrations
MEKK2 [6] = target: T2, MEKK2 (Homo sapiens, UniProt Q9Y2U5); experiment: MEKK2 intrinsic ATPase activity assay; assay type: biochemical; conditions: MEKK2 from vendor 3 (catalytic domain only)
T2 sequence (Q9Y2U5 357-619): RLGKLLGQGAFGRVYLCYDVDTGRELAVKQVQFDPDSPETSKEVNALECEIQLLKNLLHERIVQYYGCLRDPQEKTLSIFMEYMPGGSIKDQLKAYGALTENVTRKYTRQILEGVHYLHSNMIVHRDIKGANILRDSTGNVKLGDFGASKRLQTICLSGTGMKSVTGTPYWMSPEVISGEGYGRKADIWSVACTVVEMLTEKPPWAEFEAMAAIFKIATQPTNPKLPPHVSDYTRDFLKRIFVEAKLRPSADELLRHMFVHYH

[7] = 10 nM MEKK2 (vendor 1), 30 μM ATP

| Structure (SMILES) | Binding Assay Hill Slope ± SD (MEKK2 [1]) | MEKK2 Intrinsic ATPase Assay Hill Slope ± SD (MEKK2 [2]; [7]) | inhibition at 1 µM (MEKK2 [2]) [%] | Transphosphorylation Assay Hill Slope ± SD (MEKK2 [3]) | IC50 (MEKK2 [4]) [nM] | also measured |
| --- | --- | --- | --- | --- | --- | --- |
| COc1cc(Nc2c(C#N)cnc3cc(OCCCN4CCN(C)CC4)c(OC)cc23)c(Cl)cc1Cl [Bosutinib] | 0.93 ± 0.05 | 1.07 ± 0.09 | ≥ 50 | 1.03 ± 0.21 |  |  |
| Cc1nc(Nc2ncc(C(=O)Nc3c(C)cccc3Cl)s2)cc(N2CCN(CCO)CC2)n1 [Dasatinib] |  | 1.10 ± 0.20 |  |  | […] |  |
| CN[C@@H]1C[C@H]2O[C@@](C)([C@@H]1OC)n1c3ccccc3c3c4c(c5c6ccccc6n2c5c31)C(=O)NC4 [Staurosporine] |  |  |  |  |  | MEKK2 Intrinsic ATPase Assay Hill Slope ± SD (MEKK2 [2]; 1 nM (instead of 10 nM) MEKK2 enzyme): 0.93 ± 0.13 |

Continued, in another order:

| Binding Assay Hill Slope ± SD (MEKK2 [1]) | MEKK2 Intrinsic ATPase Assay Hill Slope ± SD (MEKK2 [2]; [7]) | Structure (SMILES) | inhibition at 1 µM (MEKK2 [2]) [%] | Transphosphorylation Assay Hill Slope ± SD (MEKK2 [3]) | IC50 (MEKK2 [4]) [nM] | also measured |
| --- | --- | --- | --- | --- | --- | --- |
| 1.05 ± 0.03 | 1.06 ± 0.07 | Cc1ccc(Nc2nccc(N(C)c3ccc4c(C)n(C)nc4c3)n2)cc1S(N)(=O)=O [Pazopanib] | ≥ 50 |  |  |  |
| 0.89 ± 0.04 | 1.06 ± 0.16 | CCN(CC)CCNC(=O)c1c(C)[nH]c(/C=C2\C(=O)Nc3ccc(F)cc32)c1C [Sunitinib] |  | 0.96 ± 0.15 | […] | Inhibition of ATPase activity at high compound concentrations (MEKK2 [5]): complete inhibition; Difference in IC50 values between ATPase and binding assay (MEKK2 [2]; ATPase assay vs TR-FRET binding assay): 2.4 fold; Intrinsic ATPase assay Hill slope ± SD (MEKK2 [2]; MEKK2 from vendor 2): 1.01 ± 0.02; Intrinsic ATPase assay Hill slope ± SD (MEKK2 [6]): 1.01 ± 0.05 |
|  | 0.97 ± 0.13 | Cc1cc(Nc2cc(N3CCN(C)CC3)nc(Sc3ccc(NC(=O)C4CC4)cc3)n2)[nH]n1 [VX-680] |  |  | 2300 |  |
